In PMC8300687, “A Fine-Tuned Lipophilicity/Hydrophilicity Ratio Governs Antibacterial Potency and Selectivity of Bifurcated Halogen Bond-Forming NBTIs” (Antibiotics, 2021):
Values after ≈ are worked out from the molar mass of the structure shown. Like-named read-outs stand apart in the source and are kept apart here.

Legend:
Human topoisomerase IIα = molecular target: T1, Human topoisomerase IIα (Homo sapiens, UniProt P11388); assay: Human topoisomerase II Alpha Relaxation High Throughput Plate assay; type: biochemical; details: 0.5 h; residual activity of the enzyme at compound concentration 10 μM, mean ± SD; read-out: Human Topo II (% RA)
T1 construct: purchased Inspiralis (Norwich, UK)
T1 sequence (P11388 whole entry): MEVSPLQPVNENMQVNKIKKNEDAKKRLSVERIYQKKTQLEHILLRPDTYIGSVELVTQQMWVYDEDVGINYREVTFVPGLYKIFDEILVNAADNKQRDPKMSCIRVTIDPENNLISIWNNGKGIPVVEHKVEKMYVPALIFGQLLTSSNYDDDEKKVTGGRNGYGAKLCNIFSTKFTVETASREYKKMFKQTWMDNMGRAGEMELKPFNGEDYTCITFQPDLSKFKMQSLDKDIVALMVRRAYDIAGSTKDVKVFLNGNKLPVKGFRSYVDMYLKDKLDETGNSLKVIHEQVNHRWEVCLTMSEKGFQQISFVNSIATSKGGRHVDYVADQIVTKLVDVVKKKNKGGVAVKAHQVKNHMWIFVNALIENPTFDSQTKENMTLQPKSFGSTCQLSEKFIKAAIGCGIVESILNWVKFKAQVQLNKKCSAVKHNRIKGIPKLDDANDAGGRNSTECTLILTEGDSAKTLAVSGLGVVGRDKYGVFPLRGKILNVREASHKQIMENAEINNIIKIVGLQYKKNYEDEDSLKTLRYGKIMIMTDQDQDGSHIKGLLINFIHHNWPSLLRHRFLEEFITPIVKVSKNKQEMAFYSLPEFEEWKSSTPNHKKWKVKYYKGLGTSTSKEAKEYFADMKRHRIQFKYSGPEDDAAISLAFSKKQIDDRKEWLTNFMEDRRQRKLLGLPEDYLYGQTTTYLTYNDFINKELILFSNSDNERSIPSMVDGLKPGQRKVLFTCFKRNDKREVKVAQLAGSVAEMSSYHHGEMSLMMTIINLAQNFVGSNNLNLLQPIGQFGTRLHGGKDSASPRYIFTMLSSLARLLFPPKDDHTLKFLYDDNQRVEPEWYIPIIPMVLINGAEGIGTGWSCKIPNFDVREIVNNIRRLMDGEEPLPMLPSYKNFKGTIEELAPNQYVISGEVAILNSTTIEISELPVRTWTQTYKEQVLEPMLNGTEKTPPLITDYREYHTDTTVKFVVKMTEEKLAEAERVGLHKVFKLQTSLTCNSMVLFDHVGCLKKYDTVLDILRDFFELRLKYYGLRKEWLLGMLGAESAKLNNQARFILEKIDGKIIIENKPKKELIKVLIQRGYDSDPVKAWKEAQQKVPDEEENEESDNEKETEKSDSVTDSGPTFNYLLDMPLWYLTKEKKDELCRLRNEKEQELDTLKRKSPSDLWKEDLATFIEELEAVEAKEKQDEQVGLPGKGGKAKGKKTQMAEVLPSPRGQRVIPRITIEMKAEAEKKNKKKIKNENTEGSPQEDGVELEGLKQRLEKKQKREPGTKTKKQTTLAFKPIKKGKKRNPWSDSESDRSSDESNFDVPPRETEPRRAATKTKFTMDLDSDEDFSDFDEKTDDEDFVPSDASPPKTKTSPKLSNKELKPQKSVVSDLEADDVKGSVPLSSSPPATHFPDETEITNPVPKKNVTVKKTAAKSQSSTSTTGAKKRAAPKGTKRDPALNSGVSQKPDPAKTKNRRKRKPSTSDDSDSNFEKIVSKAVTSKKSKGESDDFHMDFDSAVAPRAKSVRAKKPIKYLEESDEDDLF
Protocol: A Human topoisomerase II Alpha Relaxation High Throughput Plate assay kit, purchased from Inspiralis (Norwich, UK) was used to evaluate the selectivity of compounds for the bacterial enzymes over the homologous human topoisomerase II. […] Biotinylated oligonucleotide in wash buffer was immobilized onto the wells and the excess oligonucleotide was washed off with wash buffer. […] The reactions were stopped by adding the TF buffer (50 mM NaOAc (pH 4.7), 50 mM NaCl, and 50 mM MgCl2) to allow the triplex formation (biotin-oligonucleotide-plasmid) for additional 30 min. Afterward, the unbound plasmid was washed off using TF buffer, and the solution of Promega Diamond dye in T10 buffer (10 mM Tris-HCl (pH 8.0), 1 mM EDTA) was added. […] Screening was performed at inhibitor concentrations of 10 μM. Raw data were converted to mean ± SD percentage of residual activity of the enzyme obtained by two independent measurements.

E. coli Topo IV = molecular target: T2, E. coli Topo IV (Escherichia coli, UniProt P0AFI2); assay: Topo IV Relaxation High Throughput Plate assay, E. coli; type: biochemical; details: for LE Topo IV E. coli: LE = (1.37/HA) × pIC50
T2 construct: purchased Inspiralis (Norwich, UK)
T2 sequence (P0AFI2 whole entry): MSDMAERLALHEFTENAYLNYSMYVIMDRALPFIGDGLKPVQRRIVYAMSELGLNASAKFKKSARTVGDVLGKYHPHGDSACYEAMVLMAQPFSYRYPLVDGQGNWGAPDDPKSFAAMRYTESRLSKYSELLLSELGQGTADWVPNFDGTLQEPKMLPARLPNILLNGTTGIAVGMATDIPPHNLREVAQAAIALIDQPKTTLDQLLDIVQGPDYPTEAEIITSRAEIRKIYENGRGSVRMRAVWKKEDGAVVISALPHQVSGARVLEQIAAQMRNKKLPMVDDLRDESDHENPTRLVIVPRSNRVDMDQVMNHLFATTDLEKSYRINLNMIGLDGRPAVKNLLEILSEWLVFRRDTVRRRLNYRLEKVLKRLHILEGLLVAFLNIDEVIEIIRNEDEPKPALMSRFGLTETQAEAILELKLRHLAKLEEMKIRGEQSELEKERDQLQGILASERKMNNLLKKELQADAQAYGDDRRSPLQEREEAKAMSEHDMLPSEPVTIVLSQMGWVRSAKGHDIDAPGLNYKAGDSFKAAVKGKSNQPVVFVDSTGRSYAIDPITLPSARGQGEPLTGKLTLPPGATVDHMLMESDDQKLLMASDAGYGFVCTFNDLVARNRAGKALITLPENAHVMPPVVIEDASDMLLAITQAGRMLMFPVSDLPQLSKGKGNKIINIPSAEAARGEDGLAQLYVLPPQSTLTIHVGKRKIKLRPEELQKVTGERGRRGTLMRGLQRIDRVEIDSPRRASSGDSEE
T2 sequence (P20083 whole entry, further chain): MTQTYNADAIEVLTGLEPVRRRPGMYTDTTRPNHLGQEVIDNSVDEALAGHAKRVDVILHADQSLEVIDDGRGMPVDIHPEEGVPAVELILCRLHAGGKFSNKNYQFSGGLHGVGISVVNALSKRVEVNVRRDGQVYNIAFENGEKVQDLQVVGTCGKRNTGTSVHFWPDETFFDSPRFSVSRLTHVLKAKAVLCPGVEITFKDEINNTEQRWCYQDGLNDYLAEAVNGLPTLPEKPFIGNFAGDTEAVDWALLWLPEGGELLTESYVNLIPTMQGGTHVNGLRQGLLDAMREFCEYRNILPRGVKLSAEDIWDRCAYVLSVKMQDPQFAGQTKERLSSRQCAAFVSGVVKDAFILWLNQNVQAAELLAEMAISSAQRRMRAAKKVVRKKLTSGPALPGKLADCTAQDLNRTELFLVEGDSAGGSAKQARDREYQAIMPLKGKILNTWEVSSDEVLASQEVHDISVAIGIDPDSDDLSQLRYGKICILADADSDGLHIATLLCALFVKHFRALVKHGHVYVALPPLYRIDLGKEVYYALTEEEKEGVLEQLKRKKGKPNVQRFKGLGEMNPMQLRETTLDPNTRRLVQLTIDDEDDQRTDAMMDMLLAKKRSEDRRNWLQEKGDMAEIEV
Protocol: A Topo IV Relaxation High Throughput Plate assay kit, purchased from Inspiralis (Norwich. UK) was used to determine IC50 values of compounds on S. aureus and E. coli. […] Biotinylated oligonucleotide in wash buffer was immobilized onto the wells, and the excess oligonucleotide was washed off with wash buffer and ultrapure water. 1.5 U of S. aureus or E. coli […] enzyme was incubated together with 0.75 μg of supercoiled pNO1 plasmid as a substrate in the presence of 3 μL inhibitor solution in 10% DMSO and 0.008% Tween 20 at 37 °C for 30 min in a final reaction volume of 30 μL in dilution buffer (50 mM Tris-HCl (pH 7.5), 1 mM DTT, 1 mM EDTA, 40% (w/v) glycerol for S. aureus and 40 mM HEPES, KOH (pH 7.6), 100 mM potassium glutamate, 1 mM DTT, 1 mM EDTA, and 40% (v/v) glycerol for E. coli). The reactions were stopped by adding the TF buffer (50 mM NaOAc (pH 4.7), 50 mM NaCl, and 50 mM MgCl2) to allow the triplex formation (biotin-oligonucleotide-plasmid) for additional 30 min. Afterward, the unbound plasmid was washed off using TF buffer, and the solution of Promega Diamond dye in T10 buffer (10 mM Tris-HCl (pH 8.0), 1 mM EDTA) was added. […] IC50 value represents the mean of two to four independent measurements.

[1] = system: C. jejuni RDK 135 (ATCC 33560); assay: MIC broth microdilution, C. jejuni; type: cell-based; details: Campylobacter jejuni, ATCC33560; read-out: MIC C. jejuni RDK 135 (ATCC 33560)
Protocol: (§1) Antimicrobial testing was carried out by the broth microdilution method in 96-well plate format following the Clinical and Laboratory Standards Institute (CLSI) guidelines and European Committee on Antimicrobial Susceptibility Testing (EUCAST) recommendations. Bacterial suspension of specific bacterial strain equivalent to 0.5 McFarland turbidity standard was diluted with cation-adjusted Mueller Hinton broth with TES (Thermo Fisher Diagnostic, Landsmeer, The Netherlands), to obtain a final inoculum of 10^5 CFU/mL. Compounds dissolved in DMSO and inoculum were mixed together and incubated for 18–20 h at 35 °C. Suspensions of Mycobacterium sp. were prepared into a tube of Middelbrook 7H9 broth supplemented with 5% OADC (Thermo Scientific, Trek Diagnostic Systems, West Sussex, UK) and incubated for at least 10 days. After incubation the minimal inhibitory concentration (MIC) values were determined by visual inspection as the lowest dilution of compounds showing no turbidity. Tetracycline was used as a positive control on every assay plate.

E. coli (QA-11.8) = assay: MIC broth microdilution, E. coli QA-11.8; type: cell-based; details: Escherichia coli, 20 h; read-out: MIC E. coli (QA-11.8)
Protocol: as §1

[2] = system: A. baumannii 8C6 (GES-14); assay: MIC broth microdilution, A. baumannii; type: cell-based; details: Acinetobacter baumannii; read-out: MIC A. baumannii 8C6 (GES-14)
Protocol: as §1

S. aureus DNA gyrase = molecular target: T3, S. aureus DNA gyrase (Staphylococcus aureus, UniProt P20831); assay: biochemical; type: biochemical; details: for LE DNA Gyrase S. aureus: LE = (1.37/HA) × pIC50; for IC50: fluorescence plate supercoiling assay, mean of two to four measurements
T3 construct: purchased Inspiralis (Norwich, UK)
Protocol: (§2) A Gyrase Supercoiling High Throughput Plate assay kit, purchased from Inspiralis (Norwich. UK) was used to determine IC50 values of compounds on S. aureus and E. coli. […] Biotinylated oligonucleotide in wash buffer was immobilized onto the wells, and the excess oligonucleotide was washed off with wash buffer and ultrapure water. […] The reactions were stopped by adding the TF buffer (50 mM NaOAc (pH 4.7), 50 mM NaCl, and 50 mM MgCl2) to allow the triplex formation (biotin-oligonucleotide-plasmid) for additional 30 min. Afterward, the unbound plasmid was washed off using TF buffer, and the solution of Promega Diamond dye in T10 buffer (10 mM Tris-HCl (pH 8.0), 1 mM EDTA) was added. […] IC50 value represents the mean of two to four independent measurements.

E. coli DNA gyrase = molecular target: T4, E. coli DNA gyrase (Escherichia coli, UniProt P0AES4); assay: Gyrase Supercoiling High Throughput Plate assay, E. coli; type: biochemical; details: for LE DNA Gyrase E. coli: LE = (1.37/HA) × pIC50
T4 construct: purchased Inspiralis (Norwich, UK)
T4 sequence (P0AES4 whole entry): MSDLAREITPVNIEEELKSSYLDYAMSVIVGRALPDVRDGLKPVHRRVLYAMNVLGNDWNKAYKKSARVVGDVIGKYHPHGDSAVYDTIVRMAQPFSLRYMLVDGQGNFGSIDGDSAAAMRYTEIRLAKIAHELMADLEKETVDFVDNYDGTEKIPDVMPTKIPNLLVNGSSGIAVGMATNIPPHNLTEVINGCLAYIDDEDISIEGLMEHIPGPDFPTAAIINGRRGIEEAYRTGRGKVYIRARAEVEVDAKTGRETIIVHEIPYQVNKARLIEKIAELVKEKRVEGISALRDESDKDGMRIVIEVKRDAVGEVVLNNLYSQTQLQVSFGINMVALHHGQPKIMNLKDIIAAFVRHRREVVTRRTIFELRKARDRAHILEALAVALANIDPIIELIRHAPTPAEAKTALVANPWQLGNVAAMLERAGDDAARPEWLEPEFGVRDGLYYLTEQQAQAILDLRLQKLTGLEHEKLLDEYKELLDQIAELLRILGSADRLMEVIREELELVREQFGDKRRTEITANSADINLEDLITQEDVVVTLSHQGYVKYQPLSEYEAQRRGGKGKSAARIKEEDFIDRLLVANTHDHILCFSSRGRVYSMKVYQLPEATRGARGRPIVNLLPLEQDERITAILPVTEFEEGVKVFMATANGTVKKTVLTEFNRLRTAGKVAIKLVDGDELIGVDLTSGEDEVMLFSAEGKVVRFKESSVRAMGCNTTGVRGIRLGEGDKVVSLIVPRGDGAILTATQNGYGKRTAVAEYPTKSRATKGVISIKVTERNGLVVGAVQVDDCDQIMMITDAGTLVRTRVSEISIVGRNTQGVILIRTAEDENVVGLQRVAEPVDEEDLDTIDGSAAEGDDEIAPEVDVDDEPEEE
Protocol: as §2

MRSA (QA-11.2) = assay: MIC broth microdilution, MRSA QA-11.2; type: cell-based, methicillin-resistant S. aureus; details: Staphylococcus aureus, 20 h, read-out: MIC MRSA (QA-11.2)
Protocol: as §1

MRSA (QA-11.7) = assay: MIC broth microdilution, MRSA QA-11.7; type: cell-based, methicillin-resistant S. aureus; details: Staphylococcus aureus, 20 h, read-out: MIC MRSA (QA-11.7)
Protocol: as §1

[3] = system: S. agalactiae RDK 047 (QA-990/02); assay: MIC broth microdilution, S. agalactiae; type: cell-based; details: Streptococcus agalactiae; read-out: MIC S. agalactiae RDK 047 (QA-990/02)
Protocol: as §1

[4] = resistant to cefoxitin, chloramphenicol, clindamycin, linezolid, tetracycline, thiamulin, trimethoprim
[5] = mean of two to four measurements, read-out: Topoisomerase IV IC50 E. coli

Structure (SMILES) | remaining activity at 10 µM (Human topoisomerase IIα) | IC50 (E. coli Topo IV) | LE Topo IV E. coli (E. coli Topo IV) | MIC [1] | MIC (E. coli (QA-11.8)) | MIC [2] | LE DNA Gyrase S. aureus (S. aureus DNA gyrase) | IC50 (S. aureus DNA gyrase) | IC50 (E. coli DNA gyrase) | LE DNA Gyrase E. coli (E. coli DNA gyrase) | MIC (MRSA (QA-11.2); [4]) | MIC (MRSA (QA-11.7)) | MIC [3] | IC50 (E. coli Topo IV; [5]) | MIC (MRSA (QA-11.2))
COc1ccc2nccc(CCN3CCC(NCc4cnn(-c5ccccc5)n4)CC3)c2n1 [Compound 8, 1-(2-(6-Methoxy-1,5-naphthyridin-4-yl)ethyl)-N-((2-phenyl-2H-1,2,3-triazol-4-yl)methyl)piperidin-4-amine] | 94.2 ± 2.9% | 210 nM | 0.28 | 4 µg/mL (≈ 9.02 µM) | 32 µg/mL (≈ 72.1 µM) | 32 µg/mL (≈ 72.1 µM) | 0.27 | 240 ± 40 nM | 7.83 ± 0.55 µM | 0.21 | 0.5 µg/mL (≈ 1.13 µM) | 0.5 µg/mL (≈ 1.13 µM) | 0.5 µg/mL (≈ 1.13 µM) | – | –
COc1ccc2nccc(CCN3CCC(NCc4cnn(C(C)C)c4)CC3)c2n1 [Compound 9, N-((1-Isopropyl-1H-pyrazol-4-yl)methyl)-1-(2-(6-methoxy-1,5-naphthyridin-4-yl)ethyl)piperidin-4-amine] | 101 ± 6.82% | 230 nM | 0.30 | 0.5 µg/mL (≈ 1.22 µM) | 8 µg/mL (≈ 19.6 µM) | 2 µg/mL (≈ 4.9 µM) | 0.31 | 160 ± 10 nM | 2.95 ± 0.56 µM | 0.25 | 1 µg/mL (≈ 2.45 µM) | 1 µg/mL (≈ 2.45 µM) | 0.5 µg/mL (≈ 1.22 µM) | – | –
C=CCn1cc(CNC2CCN(CCc3ccnc4ccc(OC)nc34)CC2)cn1 [Compound 10, N-((1-Allyl-1H-pyrazol-4-yl)methyl)-1-(2-(6-methoxy-1,5-naphthyridin-4-yl)ethyl)piperidin-4-amine] | 95.7 ± 6.42% | 280 ± 10 nM | 0.30 | 8 µg/mL (≈ 19.7 µM) | 16 µg/mL (≈ 39.4 µM) | 32 µg/mL (≈ 78.7 µM) | 0.27 | 1100 ± 170 nM | 16.7 ± 0.93 µM | 0.22 | 4 µg/mL (≈ 9.84 µM) | 4 µg/mL (≈ 9.84 µM) | 4 µg/mL (≈ 9.84 µM) | – | –
COc1ccc2nccc(CCN3CCC(NCc4ccc(Cl)cc4)CC3)c2n1 [Compound 13] | 102 ± 0.84% | – | – | 2 µg/mL (≈ 4.87 µM) | 2 µg/mL (≈ 4.87 µM) | 4 µg/mL (≈ 9.73 µM) | – | – | – | – | 0.25 µg/mL (≈ 0.608 µM) | 0.5 µg/mL (≈ 1.22 µM) | 1 µg/mL (≈ 2.43 µM) | 31 nM | –
COc1ccc2nccc(CCN3CCC(NCc4ccc(Br)cc4)CC3)c2n1 [Compound 14] | 98.2 ± 2.72% | – | – | 0.5 µg/mL (≈ 1.1 µM) | 1 µg/mL (≈ 2.2 µM) | 1 µg/mL (≈ 2.2 µM) | – | – | – | – | – | 0.0625 µg/mL (≈ 0.137 µM) | 0.5 µg/mL (≈ 1.1 µM) | 42 ± 3 nM | 0.125 µg/mL (≈ 0.274 µM)
COc1ccc2nccc(CCN3CCC(NCc4ccc(I)cc4)CC3)c2n1 [Compound 15] | 88.3 ± 3.33% | – | – | 0.015 µg/mL (≈ 0.0299 µM) | 0.25 µg/mL (≈ 0.498 µM) | 0.25 µg/mL (≈ 0.498 µM) | – | – | – | – | 0.0312 µg/mL (≈ 0.0622 µM) | 0.0078 µg/mL (≈ 0.0155 µM) | 0.125 µg/mL (≈ 0.249 µM) | 21 ± 1 nM | –
